Experimental data from patent publication US20060211668A1, “Use of ciclesonide for the treatment of inflammatory bowel diseases” (ALTANA PHARMA AG, priority 2003, published 2006).

Columns and labels:
[1] = system: TNBS-induced Colits in the rat; assay: TNBS-induced colitis in the rat, intrarectal administration; assay type: in vivo; conditions: for max Colon width: lowest dose that impacts the parameter to a relevant extent (inhibition of the TNBS-induced increase): TNBS 30 mg/kg rectally, compound intrarectal twice daily days -1 to +2, sacrificed day 2; for Thymus weight: lowest dose that impacts the parameter to a relevant extent (amplification of the TNBS-induced decrease) / Weight of adrenal glands: lowest dose that impacts the parameter to a relevant extent (inhibition of the TNBS-induced increase): TNBS colitis, intrarectal twice daily, side effect parameter
Description: As an animal model of Inflammatory Bowel Disease, the TNBS-induced Colits in the rat had been used.
48 h fasted rats (220-250 g b.w.) received rectally 0,9 ml of a solution consisting of 30% ethanol, 30 mg/kg TNBS (Trinitrobenzoesulfonic acid) in an oral distance of 8-9 cm from the anus. Compound administration days −1 to +2. Animals were sacrified on day 2. For intrarectal administration the compounds were solved in 1% ethanol, 10% Propyleneglycol and 20% Cyclodextrin. The used range of concentrations was identical for all compounds. Intrarectal administration schedule: twice daily. Compounds used: Ciclesonide and for comparison, Budesonide and Dexamethasone.
As parameters for the estimation of the pharmacological effects of the compounds, max. colon width had been used. As for the estimation of potential side effects, the weights of thymus and adrenal glands have been registrated.
The efficacy of a treatment was calculated on the reference of controls that received either no TNBS or TNBS rectally, establishing the range of 100 to 0% inhibition, respectively, in the drug screening.

[2] = human; cited from earlier work

SMILES	max Colon width: lowest dose that impacts the parameter to a relevant extent (inhibition of the TNBS-induced increase) [1]	Thymus weight: lowest dose that impacts the parameter to a relevant extent (amplification of the TNBS-induced decrease) ([1]; highest assessed dose 6.9)	Weight of adrenal glands: lowest dose that impacts the parameter to a relevant extent (inhibition of the TNBS-induced increase) ([1]; highest assessed dose 6.9)	Weight of adrenal glands: lowest dose that impacts the parameter to a relevant extent (inhibition of the TNBS-induced increase) ([1]; highest assessed dose 6.9, listed as budenoside)	Oral bioavailability [2]	Thymus weight: lowest dose that impacts the parameter to a relevant extent (amplification of the TNBS-induced decrease) ([1]; highest assessed dose 6.9, listed as ciclesonide) [μmol/animal]
CCCC1O[C@@H]2C[C@H]3[C@@H]4CCC5=CC(=O)C=C[C@]5(C)[C@H]4[C@@H](O)C[C@]3(C)[C@]2(C(=O)CO)O1 (stereo partly shown) [Budesonide]	2.3-6.9 μmol/animal	2.3 μmol/animal	n.e. @ 6.9 μmol/animal	does not reverse	–	–
CC(C)C(=O)OCC(=O)[C@@]12O[C@H](C3CCCCC3)O[C@@H]1C[C@H]1[C@@H]3CCC4=CC(=O)C=C[C@]4(C)[C@H]3[C@@H](O)C[C@@]12C [Ciclesonide, [11β,16α(R)]-16,17-[(cyclohexylmethylene)bis(oxy)]-11-hydroxy-21-(2-methyl-1-oxopropoxy)pregna-1,4-diene-3,20-dione]	2.3 μmol/animal	n.e. @ 6.9 μmol/animal	2.3 μmol/animal	–	below 1%	> 6.9
C[C@@H]1C[C@H]2[C@@H]3CCC4=CC(=O)C=C[C@]4(C)[C@@]3(F)[C@@H](O)C[C@]2(C)[C@@]1(O)C(=O)CO [Dexamethasone]	0.69 μmol/animal	–	–	–	–	–
